From patent US20210001138A1, “ELECTROSTATIC DRUG DELIVERY” (Nano Hesgarsazan Salamat Arya, priority 2019, published 2021) come the findings set out here.

In the experiment the test system is MC4L2 mice tumor. Briefly: Sonography of MC4L2 mice tumor after injection of the free drug, with or without electrostatic field. The settings on record: for trace of tumor after the second injection period: every 3 days.

Method: Here, three injection periods of Cisplatin were carried out every 3 days for a group of mice having a MC4L2 mice tumor as an example of triple-positive breast cancer. About 20 mg/kg of Cisplatin was applied for a Control sample with a MC4L2 mice tumor without applying an electrostatic field.
Here, four injection periods of Doxorubicin were carried out every 3 days for a group of mice having a MC4L2 mice tumor as an example of triple-positive breast cancer. About 10 mg/kg of Doxorubicin was applied for a Control sample with a MC4L2 mice tumor without applying an electrostatic field. […] All sonography images were taken after about 10 days of treatments, and all drug injections were done every about 3 days.

Take `N.N.[Cl][Pt][Cl]` [Cisplatin]: the “tumor outcome in sonography images” value (about 5 mg/kg Cisplatin followed by electrostatic field, FIG. 5B) was “removed completely”. For the same molecule, the “trace of tumor after the second injection period” value (about 5 mg/kg Cisplatin per period, then DC electrostatic field -60 V to -120 V via conductive patch, sample mouse No. 1) was “no observable trace of tumor”. For the same molecule, the “reduction in tumor volume” value (about 20 mg/kg Cisplatin, without electrostatic field, FIG. 4B vs FIG. 4A) is recorded as “about 60%”.
For `COc1cccc2c1C(=O)c1c(O)c3c(c(O)c1C2=O)C[C@@](O)(C(=O)CO)C[C@@H]3O[C@H]1C[C@H](N)[C@H](O)[C@H](C)O1` [Doxorubicin], under “about 1 mg/kg Doxorubicin followed by electrostatic field, sonography after about 10 days, FIG. 9B”, the “tumor outcome in sonography images” value is “removed completely”. Where the note is “about 1 mg/kg Doxorubicin per period, then DC electrostatic field 60 V to 120 V via conductive patch, sample mouse No. 2”, the “trace of tumor after the second injection period” value is listed as “no observable trace of tumor”.
